# Experimental data as given in patent US6548041B1, “Dopamine transporter imaging agents” (Organix, Inc., priority 1999, dated 2003).
# Legend:
# DAT sites in striatum [1] = assay: SPECT imaging of monkey brain with 99mTc labeled tracers; assay type: in vivo, Rhesus monkeys; settings: SPECT images
# Description: (§1) All SPECT images were acquired with a MultiSPECT 2 gamma camera (Siemens, Hoffman Estates, Ill.) equipped with fan-beam collimators and peaked to the 140 KeV photopeak of ^99mTc (15% window). This camera has intrinsic resolution of 4.6 mm (FWHM), and a sensitivity of ˜240 cps/mCi. Images were acquired over 360° (60 projections/head, 128×128 matrix) in the continuous mode. Image reconstruction was performed using a conventional filtered back-projection algorithm to an in-plane resolution of 10 mm FWHM and attenuation correction via the Chang method.
# (§2) Rhesus monkeys weighing approximately 7 kg were anesthetized with ketamine/xylazine (15.0 and 1.5 mg/kg) and positioned prone on the imaging bed of the SPECT camera. Before the start of imaging, a venous catheter was inserted in a peripheral vein for radiopharmaceutical administration. The heads of the animals were immobilized with a custom fabricated head holder. Approximately 20-25 mCi of ^99mTc labeled O-1505T, O-1508T, O-1561T or O-1560T was injected intravenously over 60 seconds. Dynamic SPECT imaging was initiated at the end of the infusion and consisted of 2 min. acquisitions during the first hour and 5 min. acquisitions thereafter.
# (§3) SPECT slices with greatest striatal activity or in which the occipital cortex was well visualized were summed and regions of interest (ROI's) were constructed. In the striatal planes, ROI's were placed on the right and left striatum (caudate+putamen). Radioactivity in the right and left striatum were averaged. ROI radioactivities (cpm/cc) were decay corrected to the time of injection. The difference between striatal and occipital cortex activity (specific binding) was calculated for each image and was plotted as a function of time. Corrections for scattered fraction and partial volume effects were not performed.
# DAT sites in striatum [2] = biological target: T1, DAT sites in striatum (Macaca mulatta, UniProt Q7JHP9); assay: as above; assay type: in vivo, Rhesus monkeys
# T1 construct: from tissue; host or cells: brain (striatum) of living rhesus monkeys, imaged in vivo
# T1 sequence (Q7JHP9 1-620): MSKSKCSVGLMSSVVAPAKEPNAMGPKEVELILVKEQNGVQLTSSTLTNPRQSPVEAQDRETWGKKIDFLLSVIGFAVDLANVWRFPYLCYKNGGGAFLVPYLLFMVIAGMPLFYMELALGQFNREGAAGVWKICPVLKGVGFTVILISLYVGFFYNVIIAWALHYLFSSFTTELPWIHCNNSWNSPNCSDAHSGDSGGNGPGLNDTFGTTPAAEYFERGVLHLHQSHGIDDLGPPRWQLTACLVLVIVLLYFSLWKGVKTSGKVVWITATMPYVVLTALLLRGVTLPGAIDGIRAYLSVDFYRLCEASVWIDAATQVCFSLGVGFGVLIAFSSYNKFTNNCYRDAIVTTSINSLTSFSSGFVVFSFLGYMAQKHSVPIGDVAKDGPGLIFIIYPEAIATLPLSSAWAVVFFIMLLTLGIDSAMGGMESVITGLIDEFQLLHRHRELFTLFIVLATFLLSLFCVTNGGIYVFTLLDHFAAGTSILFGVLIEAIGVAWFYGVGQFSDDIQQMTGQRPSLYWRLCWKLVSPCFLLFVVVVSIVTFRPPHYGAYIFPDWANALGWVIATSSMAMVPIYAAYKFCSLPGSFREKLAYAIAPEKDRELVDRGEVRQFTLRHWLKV
# Description: as §1, §2, §3
# [3] = Biodistribution and radiation dosimetry (MIRdose); assay type: in vivo, Sprague-Dawley rats
# Description: Groups of male Sprague-Dawley rats were in injected with ˜10 mCi of ^99mTc labeled O-1505T and O-1561T. At time intervals between 5 min. and 24 hrs after injection, groups of 6 animals injected with each radiopharmaceutical were sacrificed and biodistribution was measured. Samples of blood, heart, lung, liver, spleen, kidney, adrenal, stomach, GI tract, testes, bone, bone marrow and skeletal muscle were weighed and radioactivity was measured with a well type gamma counter (LKB model #1282, Wallac Oy, Finland). To correct for radioactive decay and permit calculation of the concentration of radioactivity in each organ as a fraction of the administered dose, aliquots of the injected doses were counted simultaneously. The results were expressed as percent injected dose per gram (%I.D./g) and radiation dosimetry was estimated by the MIRdose method.
# DAT sites = biological target: T2, DAT sites (Macaca mulatta, UniProt Q7JHP9); assay: Selectivity for DAT sites in the monkey brain (displacement by unlabeled CFT); assay type: in vivo
# T2 construct: from tissue; host or cells: brain (striatum) of living rhesus monkeys, imaged in vivo
# T2 sequence (Q7JHP9 1-620): as above
# Description: For this study, a monkey was positioned supine on the imaging table of the MultiSPECT 2 gamma camera and injected with ˜20 mCi of ^99mTc O-1560T as described above. At approximately 20 min. after radiopharmaceutical administration, the animal was injected with CFT (1.0 mg/kg) and imaging was continued for an additional 70 min.
# as §3
# DAT sites in striatum [4] = biological target: T1, DAT sites in striatum; assay: SPECT of MPTP treated monkeys (animal model of Parkinson's disease); assay type: in vivo, rhesus monkey; settings: one month after MPTP treatment
# Description: The neurotoxin MPTP ([…]), when administered to monkeys, produces a spectrum of motor, cognitive, biochemical and morphological changes that is not replicated in rodents. MPTP-treated monkeys develop neurological deficits (resting tremor, rigidity, akinesia, postural abnormalities), morphological changes (cell loss in the substantia nigra, ventral tegmental area, retrorubal fields) and biochemical changes (severe depletion of DA and decreases in norepinephrine and serotonin) that closely, parallel idiopathic PD and post-encephalitic Parkinsonism.
# Two monkeys were treated with MPTP; 3-5 doses of 0.6 mg/kg administered over 10 days. Treatment was performed under ketamine anesthesia (15 mg/kg). This dose of MPTP, has previously been used to produce Parkinsonism within 2-3 weeks and depletion of ^3H or ^11C. CFT binding sites by one month. Animals treated in this manner were expected to show an inverse relationship between SPECT tracer binding and motor dysfunction. […]
# SPECT slices with greatest striatal activity or in which the occipital cortex was well visualized were summed and regions of interest (ROI's) were constructed. […] Radioactivity in the right and left striatum were averaged. […] The difference between striatal and occipital cortex activity (specific binding) was calculated for each image and was plotted as a function of time. […]
smiles,measurement,setting,value
"CCC(=O)C1C(c2ccc(F)cc2)CC2CCC1N2CCCN1CC[S][99Tc]2(=[O])[S]CC[N]2C(=O)C1 (stereo not drawn) [Compound O-1505T, N-[(2-((3′-N′-Propyl-(1″R)-2″β-1-propanoyl-3″α-(4-fluorophenyl)-tropane)-(2-mercaptoethyl)amino)acetyl)-2-aminoethanethiolato]technetium (V) Oxide]","accumulation in thalamus, hypothalamus or midbrain (regions rich in 5-HT transporters)",DAT sites in striatum [1],lack of accumulation
same,time after injection to excellent contrast between striatum and the rest of the brain,"DAT sites in striatum [2]; i.v., normal monkeys",≤ 30 min
same,accumulation of radioactivity in striatum vs other areas of the brain (SPECT images),DAT sites in striatum [2]; images acquired between 30 and 50 minutes after injection,high concentrations of radiopharmaceutical in the striatum with minimal accumulation in other areas of the brain
same,striatal to occipital cortex ratio,"DAT sites in striatum [2]; region of interest analysis, SPECT images 30-50 minutes after i.v. injection of 20-25 mCi",~2.5
same,radiation dose to target organ (urinary bladder),[3]; MIRdose calculations from rat biodistribution,0.29 rem/mCi
same,total body effective dose,[3]; MIRdose estimate from rat biodistribution,0.037 rem/mCi
same,clearance from tissues (biodistribution),"[3]; rat, 5 min to 24 hrs after injection",cleared rapidly from all tissues of the rat
same,striatal accumulation after a receptor saturating dose of unlabeled CFT,"DAT sites; CFT 1.0 mg/kg at about 20 min, by 60 minutes after injection",no evidence of focal accumulation in the striatum
same,accumulation in the striatum (SPECT images),DAT sites; before injection of CFT,significant accumulation
same,time after injection to excellent contrast between striatum and the rest of the brain,DAT sites; before the effect of CFT,≤ 30 min
same,striatal accumulation after MPTP treatment compared with normal animals,DAT sites in striatum [4],the level of accumulation decreased markedly and the striatum could not be differentiated from surrounding structures
